The values below come from patent US20190365720A1, “Novel formulations of amidine substituted beta-lactam compounds on the basis of modified cyclodextrins and acidifying agents, their preparation and use as antimicrobial pharmaceutical compositions” (AiCuris Anti-Infective Cures GmbH, priority 2016, published 2019).

In brackets after ≈: the same amount, converted by molar mass. Entries after “also recorded” stand apart in the source; their conditions may differ.

Data set [1] can be described thus: pH-dependent solubility of compound (I). It is filed as physicochemical. Particulars: 25 °C. How it is done:
The solubility profile of the API of a compound of formula (I) was measured at two different pH values (see […]): FIG. 23: pH solubility profile in pure water at 25° C.

Data set [2] can be described thus: Physical / in-use stability of solutions at room temperature. It is filed as physicochemical.
Data set [3] is described as follows: Fraction bound to plasma protein in mice. The format is in vitro ADME. Particulars: mouse, read-out: Fraction bound to plasma protein (fp) (converted).
The nature of data set [4]: Calculated fraction of compound (I) bound to SBE-β-CD in blood plasma after i.v. administration. Also noted: species or system mice. The note with it: after i.v. administration at time zero. How it is done: On average, mice have 79 ml of blood per kg of body weight (see https://en.wikipedia.org/wiki/Blood_volume; Oct. 3, 2016). If the blood plasma is 55% of the total blood volume then mice have around 43 ml of plasma per kg of body weight. The dose was 25 mg/kg (0.037 mmoles/kg) of compound (I) and 156.5 mg/kg ([…]) of SBE-β-CD. After mixing with the blood plasma the initial plasma concentration should be 8.6.10^−4 M of compound (I) and 1.7.10^−3 M of SBE-β-CD.

Data set [5] is described as follows: Solubility of compound (I) in selected solvent systems by UPLC. Particulars: aqueous with cosolvent or surfactant or cyclodextrin, thermodynamic from solid, 25° C. It is filed as physicochemical. How it is done: To determine the solubility of a compound (I) in selected solvent systems in accordance with the invention, UPLC was used, and physicochemical properties such as pH and physical appearance were monitored. The solubility of compound (I) in solution was determined at 25° C. separately in following solvent systems at three time points (at 2 hours, at 6 hours and at 24 hours) in duplicates. 1) Hydroxypropyl-β-cyclodextrin solution (30% w/v) 2) Hydroxypropyl-β-cyclodextrin (30% w/v) solution containing 2% CA 3) Solvent mixture of PEG400 (40%)+2% CA (60%) To the vial for each time point 3 mL of individual solvent were added followed by addition of the weighed amount of compound (I) (100 mg). This system was kept for stirring on a magnetic stirrer at 700 rpm. At each time point, the solution was filtered through a […] syringe filter and analysed for the content of compound (I) using UPLC after suitable dilutions.

Another data set relates to female rabbits. Put plainly: Local tolerance after single intravenous infusion into the marginal ear vein. It is filed as in vivo, rabbit. As to the method:
The aim of this example was to test the local tolerance of a compound (I) containing aqueous injectable solution in accordance with the invention in female rabbits following a single intravenous infusion for 30 or 60 minutes. Each animal received 15 mL of a formulation containing 5 mg compound (I) as API per mL into the marginal vein of the right ear. Two groups of 9 female animals, each, were employed with infusion durations of 30 or 60 minutes per dose. In addition, a placebo solution as vehicle control, was administered in the same volume and duration on the left ear of each animal. 24, 72 and 96 hours after administration respectively 3 animals per group were sacrificed and the injection sites were examined macro- and microscopically. The application formulations were freshly prepared on the administration day. The compound (I) and the placebo were dissolved in the vehicles to the appropriate concentrations: 15 mL of WFI were added to 1 compound (I) drug product vial and shaken well. The solution volume expanded to approximately 17 mL. The final concentration was approximately 29 mg/mL. Withdraw 17 mL from 100 mL of lactated Ringer's solution. Then add the reconstituted solution (approx. 17 mL from step 1). Mix well. The final concentration was approximately […]. Species: rabbit; Strain: New Zealand White Selection of species: the rabbit is a commonly used species for local tolerance studies. Number and sex of animals: 18 female animals Age (at start of administration): approx. 3 months Body weight (at start of administration): 2.31 to 2.73 kg Acclimatisation period: at least 20 acclimatisation days; 4 test days Routes of administration: single intravenous infusion into the marginal vein of the ear. Selection of routes of administration: according to clinical use via intravenous route. The compound (I) solutions were administered to the right ear, and the placebo solutions were administered to the left ear of each animal. Local reactions were inspected macroscopically 1 […] and 96 h after injection. The reactions were scored on the basis of DRAIZE, Appraisal of the Safety of Chemicals in Food, Drugs and Cosmetics, Association of Food and Drug Officials of the United States, Austin, Tex., 1959. The animals scheduled for the respective dissection day were sacrificed with pentobarbitol injection into an ear vein (not used for infusion). All animals were subjected to gross examination including the opening of the cranial, thoracic and abdominal cavities and the examination of the major organs. Particular attention was paid to the appropriate injection sites (test and control items). All abnormalities were recorded. Tissue abnormalities would have been preserved in 10% neutral buffered formalin. Histopathological examination was performed on treated infusion sites (compound (I) and placebo, 2 sites per animal) plus an untreated adjacent site from all animals. Tissue samples were fixed in 10% buffered formalin. Paraffin sections (3 to 5 μm) were prepared, stained with hematoxylin-eosin, and examined histologically.

With `CC1(C)[C@H](NC(=O)/C(=N\O[C@@H](COc2ccc(C(=N)N[C@@H]3CCCNC3)cc2)C(=O)O)c2csc(N)n2)C(=O)N1OS(=O)(=O)O` [compound (I)], the solubility was found to be 1000 µg/mL (≈ 1.5 mM) in data set [1] (pure water (pH-adjusted, no cyclodextrin), pH 7.4, aqueous buffer); 10000 µg/mL (≈ 15 mM) in data set [1] (pure water, aqueous buffer, pH 4.0); 16200 µg/mL in data set [5] (30% HP-β-CD plus 2% CA); 2700 µg/mL (≈ 4.04 mM) in data set [5] (hydroxypropyl-β-cyclodextrin solution (30% w/v), 30% HP-β-CD as sole excipient). Besides, the Stability after reconstitution in data set [2] was 6 h. Also, in data set [3], the fraction unbound was 0.779. Besides, the “Fraction of compound (I) free or bound to plasma proteins” value in data set [4] is “about 80%”. Moreover, the “Fraction of compound (I) bound to SBE-β-CD” value in data set [4] (25 mg/kg with 156.5 mg/kg SBE-β-CD, plasma pH 7.4) was “about 22%”. The Body weight entry in the data set with female rabbits (15 mL of 5 mg/mL i.v. infusion) is on record as “No influence on the body weight”. Also, the Clinical signs result in the data set with female rabbits (15 mL of 5 mg/mL i.v. infusion) is on record as “No clinical signs of toxicity”. Besides, the Necropsy findings entry with female rabbits (15 mL of 5 mg/mL i.v. infusion, 30 or 60 min) was “did not reveal any changes”. Moreover, the “Macroscopic changes at infusion sites” value with female rabbits (15 mL of 5 mg/mL i.v. infusion, 30 or 60 min, inspected 1 h to 96 h) is “did not reveal any changes”. Besides, in the data set with female rabbits (15 mL of 5 mg/mL i.v. infusion, 30 or 60 min, versus vehicle control sites), the “Microscopic (histopathological) changes at infusion sites” value was “did not reveal any compound (I)-related changes; also recorded: did not cause any compound (I)-related histopathological changes”. The “Compatibility following intravenous infusion” value in the data set with female rabbits (overall conclusion) is listed as “very good compatibility”.
